For assay [1], the target named is T1, Prostaglandin G/H synthase 1 (Ovis aries, UniProt P05979).
T1 sequence (P05979 whole entry): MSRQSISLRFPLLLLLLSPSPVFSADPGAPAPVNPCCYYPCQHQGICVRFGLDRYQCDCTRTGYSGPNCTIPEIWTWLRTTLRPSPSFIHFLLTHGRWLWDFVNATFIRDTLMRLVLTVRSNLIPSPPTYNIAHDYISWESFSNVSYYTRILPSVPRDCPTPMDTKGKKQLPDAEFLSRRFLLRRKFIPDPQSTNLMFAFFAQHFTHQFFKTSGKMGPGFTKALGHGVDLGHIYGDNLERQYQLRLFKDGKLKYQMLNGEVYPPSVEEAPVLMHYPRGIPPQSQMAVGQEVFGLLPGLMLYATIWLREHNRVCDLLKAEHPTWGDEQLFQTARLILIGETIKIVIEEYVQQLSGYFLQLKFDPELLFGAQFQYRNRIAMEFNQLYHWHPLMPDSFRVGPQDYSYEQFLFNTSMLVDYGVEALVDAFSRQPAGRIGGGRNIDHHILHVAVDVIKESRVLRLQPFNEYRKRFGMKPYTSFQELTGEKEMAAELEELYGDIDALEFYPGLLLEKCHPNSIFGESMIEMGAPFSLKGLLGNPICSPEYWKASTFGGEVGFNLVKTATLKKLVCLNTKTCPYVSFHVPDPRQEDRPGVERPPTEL
Briefly: Inhibition of the ovine Prostaglandin G/H synthase 1 was determined by thin-layer chromatography assay.

Assay [2] deals with T2, Prostaglandin G/H synthase 2 (Homo sapiens, UniProt P35354).
T2 sequence (P35354 whole entry): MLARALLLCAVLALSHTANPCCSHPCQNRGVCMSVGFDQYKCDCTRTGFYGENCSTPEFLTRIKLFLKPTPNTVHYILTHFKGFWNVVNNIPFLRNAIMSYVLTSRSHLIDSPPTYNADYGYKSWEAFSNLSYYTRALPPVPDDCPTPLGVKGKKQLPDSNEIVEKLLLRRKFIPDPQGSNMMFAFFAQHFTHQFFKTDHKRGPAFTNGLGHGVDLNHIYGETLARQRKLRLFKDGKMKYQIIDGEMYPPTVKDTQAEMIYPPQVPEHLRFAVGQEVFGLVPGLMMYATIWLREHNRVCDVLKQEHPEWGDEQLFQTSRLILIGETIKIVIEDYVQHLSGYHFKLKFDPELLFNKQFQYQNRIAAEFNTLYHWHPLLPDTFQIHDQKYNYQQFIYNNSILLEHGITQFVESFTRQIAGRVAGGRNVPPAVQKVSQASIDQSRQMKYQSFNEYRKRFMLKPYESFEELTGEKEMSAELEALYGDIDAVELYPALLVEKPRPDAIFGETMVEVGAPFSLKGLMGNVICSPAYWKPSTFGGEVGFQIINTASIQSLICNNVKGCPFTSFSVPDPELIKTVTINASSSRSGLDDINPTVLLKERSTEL
Description: Inhibition of the human Prostaglandin G/H synthase 2 was determined by thin-layer chromatography assay

A short description of assay [3]: Inhibitory concentration against prostaglandin E2.
In assay [4] the target is T3, Prostaglandin G/H synthase 2 (Mus musculus, UniProt Q05769, R106A).
T3 sequence (Q05769 18-604 R106A limits assumed): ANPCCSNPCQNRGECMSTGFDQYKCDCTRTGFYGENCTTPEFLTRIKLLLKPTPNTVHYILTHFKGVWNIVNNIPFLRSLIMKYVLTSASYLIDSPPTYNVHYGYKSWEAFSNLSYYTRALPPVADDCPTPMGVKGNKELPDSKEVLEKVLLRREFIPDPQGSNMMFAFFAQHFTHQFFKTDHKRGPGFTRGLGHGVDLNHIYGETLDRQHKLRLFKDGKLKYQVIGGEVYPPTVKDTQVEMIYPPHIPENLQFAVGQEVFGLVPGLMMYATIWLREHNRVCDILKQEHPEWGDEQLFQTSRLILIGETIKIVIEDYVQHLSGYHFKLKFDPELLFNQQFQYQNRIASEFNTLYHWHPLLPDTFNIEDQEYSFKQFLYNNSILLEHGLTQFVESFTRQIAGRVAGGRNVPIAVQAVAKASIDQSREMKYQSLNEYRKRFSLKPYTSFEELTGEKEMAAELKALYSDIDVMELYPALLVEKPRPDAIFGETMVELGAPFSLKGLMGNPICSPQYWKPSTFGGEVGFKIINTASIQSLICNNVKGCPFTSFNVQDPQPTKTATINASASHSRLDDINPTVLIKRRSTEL
Description: Inhibition of the Arg120Ala murine COX-2 mutant enzyme
Assay [5] has as its target T3, Prostaglandin G/H synthase 2. As to the kind of experiment: Inhibition of the murine Arg120Ala mutant type COX-2.
Assay [6] addresses T4, Prostaglandin G/H synthase 2 (Mus musculus, UniProt Q05769).
T4 sequence (Q05769 whole entry): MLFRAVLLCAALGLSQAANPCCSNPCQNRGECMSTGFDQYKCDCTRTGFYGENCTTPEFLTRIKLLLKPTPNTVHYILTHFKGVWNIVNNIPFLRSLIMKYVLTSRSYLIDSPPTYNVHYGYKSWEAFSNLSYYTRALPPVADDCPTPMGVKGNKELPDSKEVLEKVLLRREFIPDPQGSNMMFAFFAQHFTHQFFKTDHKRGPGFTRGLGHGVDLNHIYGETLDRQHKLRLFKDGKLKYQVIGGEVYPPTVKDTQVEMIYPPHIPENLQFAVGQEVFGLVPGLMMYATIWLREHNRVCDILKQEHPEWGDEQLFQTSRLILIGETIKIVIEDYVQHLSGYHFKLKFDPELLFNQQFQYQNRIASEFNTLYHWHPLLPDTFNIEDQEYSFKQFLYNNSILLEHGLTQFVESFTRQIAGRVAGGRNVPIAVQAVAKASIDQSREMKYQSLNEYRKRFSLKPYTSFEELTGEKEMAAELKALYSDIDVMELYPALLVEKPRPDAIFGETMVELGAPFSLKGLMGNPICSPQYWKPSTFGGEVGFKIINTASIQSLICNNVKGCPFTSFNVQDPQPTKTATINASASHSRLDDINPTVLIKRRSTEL
Briefly: Inhibition of the murine wild type Prostaglandin G/H synthase 2.

On to `Cc1ccc(Cl)c(Nc2ccccc2C(=O)NCC(=O)O)c1Cl`, for which the figures for the IC50 in assay [1] and in assay [2] were 400 nM and 300 nM, respectively.

Take `Cc1ccc(Cl)c(Nc2ccccc2C(=O)NCCO)c1Cl`: the IC50 in assay [1] is 600 nM; in assay [2] it was 1000 nM.

For `Cc1ccc(Cl)c(Nc2ccccc2C(=O)NOC(C)(C)C)c1Cl`, the half-maximal inhibitory concentration (IC50) was 8000 nM in assay [1] and 66000 nM in assay [2].

For `Cc1ccc(Cl)c(Nc2ccccc2C(=O)NOCc2ccc([N+](=O)[O-])cc2)c1Cl`, the IC50 in assay [1] worked out at 200 nM; in assay [2], 66000 nM.

Turning to `COC(=O)[C@@H](C)NC(=O)c1ccccc1Nc1c(Cl)ccc(C)c1Cl`, the IC50 in assay [1] came to 2700 nM; in assay [2], 6000 nM.

Turning to `Cc1ccc(Cl)c(Nc2ccccc2C(=O)NCCOc2ccccc2)c1Cl`, the IC50 in assay [1] turned out to be 150 nM; in assay [3] it was 1800 nM; in assay [4], 550 nM; in assay [2] it was 66000 nM.

With `COC(=O)CNC(=O)c1ccccc1Nc1c(Cl)ccc(C)c1Cl`, the results for the IC50 in assay [1] and in assay [2] were 70 nM and 1200 nM, respectively.

Take `CCCCCCCCNC(=O)c1ccccc1Nc1c(Cl)ccc(C)c1Cl`: the half-maximal inhibitory concentration (IC50) is 50 nM in assay [1] and 60 nM in assay [2].

With `Cc1ccc(Cl)c(Nc2ccccc2C(=O)NCCc2ccccc2)c1Cl`, the IC50 in assay [1] is 4500 nM; in assay [2] it was 4000 nM.

Consider `Cc1ccc(Cl)c(Nc2ccccc2C(=O)NCCCCl)c1Cl`, for which the concentration for half-maximal inhibition (IC50) in assay [1] was 60 nM; in assay [2], 2400 nM.

Consider `CCOC(=O)CNC(=O)c1ccccc1Nc1c(Cl)ccc(C)c1Cl`, for which the IC50 in assay [1] worked out at 200 nM; in assay [2] it was 4000 nM.

Turning to `CNC(=O)c1ccccc1Nc1c(Cl)ccc(C)c1Cl`, the concentration for half-maximal inhibition (IC50) in assay [1] and in assay [2] was > 2000 nM each time.

Regarding `COCCNC(=O)c1ccccc1Nc1c(Cl)ccc(C)c1Cl`, the IC50 in assay [1] stood at 140 nM; in assay [2], 3000 nM.

For the molecule `COC(=O)c1ccccc1Nc1c(Cl)ccc(C)c1Cl`, the IC50 in assay [1] came to 17000 nM; in assay [2], 4000 nM.

For the molecule `CC(=O)Nc1ccc(OC(=O)c2ccccc2Nc2c(Cl)ccc(C)c2Cl)cc1`, the IC50 in assay [1] and in assay [2] was > 20000 nM throughout.

As for `COC(=O)[C@H](C)NC(=O)c1ccccc1Nc1c(Cl)ccc(C)c1Cl`, the IC50 in assay [1] was 800 nM; in assay [2] it was 2600 nM.

Consider `COCCCNC(=O)c1ccccc1Nc1c(Cl)ccc(C)c1Cl`, for which the IC50 came out at 250 nM in assay [1] and 11000 nM in assay [2].

Regarding `Cc1ccc(Cl)c(Nc2ccccc2C(=O)N[C@@H](C)C(=O)O)c1Cl`, the IC50 in assay [1] was 6000 nM; in assay [2], 33000 nM.

`Cc1ccc(Cl)c(Nc2ccccc2C(=O)NNCc2ccccc2)c1Cl`: the IC50 worked out at 5000 nM in assay [1] and 6300 nM in assay [2].

Take `Cc1ccc(Cl)c(Nc2ccccc2C(=O)NCCBr)c1Cl`: the half-maximal inhibitory concentration (IC50) in assay [1] is 70 nM; in assay [2], 2000 nM.

As to `Cc1ccc(Cl)c(Nc2ccccc2C(=O)NOCc2ccccc2)c1Cl`, the IC50 came out at 1000 nM in assay [1] and 66000 nM in assay [2].

Regarding `Cc1ccc(Cl)c(Nc2ccccc2C(=O)N[C@H](C)C(=O)O)c1Cl`, the concentration for half-maximal inhibition (IC50) in assay [1] is 8000 nM; in assay [2] it was > 33000 nM.

For `CONC(=O)c1ccccc1Nc1c(Cl)ccc(C)c1Cl`, the 50% inhibitory concentration (IC50) in assay [1] was 500 nM; in assay [2] it was 55000 nM.

With `Cc1ccc(Cl)c(Nc2ccccc2C(=O)O)c1Cl` [MECLOFENAMIC ACID], the IC50 amounted to 400 nM in assay [5], 50 nM in assay [1], 200 nM in assay [6] and 40 nM in assay [2].
